Patent publication US8993756B2 (Merck Sharp & Dohme Corp., priority 2011, dated 2015)

Key:
JAK3 = JAK3 (Homo sapiens (Human), UniProt P52333); test: Jak Biochemical HTRF Assay (JAK3); details: recombinant GST-tagged catalytic domain, [ATP] 2.9 μM
JAK2 = JAK2 (Homo sapiens (Human), UniProt O60674); test: Jak Biochemical HTRF Assay (JAK2); details: recombinant GST-tagged catalytic domain, [ATP] 8.5 μM
JAK2, sequence (O60674 849-1124): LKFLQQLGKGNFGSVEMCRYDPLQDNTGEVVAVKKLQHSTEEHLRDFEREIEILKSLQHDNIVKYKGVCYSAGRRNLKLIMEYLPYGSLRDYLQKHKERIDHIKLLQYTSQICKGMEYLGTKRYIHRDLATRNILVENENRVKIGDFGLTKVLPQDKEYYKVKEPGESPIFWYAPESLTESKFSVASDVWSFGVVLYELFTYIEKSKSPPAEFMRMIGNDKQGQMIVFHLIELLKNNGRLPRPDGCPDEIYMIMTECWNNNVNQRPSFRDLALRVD

JAK3, sequence (P52333 822-1111): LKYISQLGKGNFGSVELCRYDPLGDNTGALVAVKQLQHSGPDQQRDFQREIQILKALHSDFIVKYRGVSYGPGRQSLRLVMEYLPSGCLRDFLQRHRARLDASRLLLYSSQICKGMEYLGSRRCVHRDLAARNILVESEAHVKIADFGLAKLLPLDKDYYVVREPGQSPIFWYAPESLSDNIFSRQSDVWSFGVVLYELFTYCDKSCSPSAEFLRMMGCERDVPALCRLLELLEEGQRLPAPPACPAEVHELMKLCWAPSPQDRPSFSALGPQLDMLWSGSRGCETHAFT

Compound | IC50 (JAK3; given as range class) [nM] | IC50 (JAK2; given as range class) [nM] | IC50 (JAK3) [nM] | IC50 (JAK2) [nM]
CCOC(=O)c1c[nH]c2ncnc(-c3cccc(-c4nc(Cl)ns4)c3)c12 [Example 7-2, ethyl 4-(3-(3-chloro-1,2,4-thiadiazol-5-yl)phenyl)-7H-pyrrolo[2,3-d]pyrimidine-5-carboxylate] | 10 to 500 | > 500 | – | –
CCOC(=O)c1c[nH]c2ncnc(-c3cccc(-c4nc(Br)ns4)c3)c12 [Example 7-3, ethyl 4-(3-(3-bromo-1,2,4-thiadiazol-5-yl)phenyl)-7H-pyrrolo[2,3-d]pyrimidine-5-carboxylate] | 10 to 500 | > 500 | – | –
CCOC(=O)c1c[nH]c2ncnc(-c3cccc(-c4nc(C#N)ns4)c3)c12 [Example 7-4, Ethyl 4-(3-(cyano-1,2,4-thiadiazol-5-yl)phenyl)-7H-pyrrolo[2,3-d]pyrimidine-5-carboxylate] | 10 to 500 | > 500 | – | –
CCOC(=O)c1c[nH]c2ncnc(-c3cccc(C(=O)NCC#N)c3)c12 [Example 8-1] | 10 to 500 | > 500 | – | –
CCOC(=O)c1c[nH]c2ncnc(-c3cccc(NC(=O)NCC#N)c3)c12 [Example 9-1, Ethyl 4-(3-(3-(cyanomethyl)ureido)phenyl)-7H-pyrrolo[2,3-d]pyrimidine-5-carboxylate] | 10 to 500 | > 500 | – | –
CCOC(=O)c1c[nH]c2ncnc(-c3cccc(NC(=O)NC#N)c3)c12 [Example 9-2, ethyl 4-(3-(3-cyanoureido)phenyl)-7H-pyrrolo[2,3-d]pyrimidine-5-carboxylate] | 10 to 500 | 10 to 500 | – | –
C=CS(=O)(=O)Nc1cccc(-c2ncnc3[nH]cc(C(=O)OCC)c23)c1 [Example 10-1, Ethyl 4-{3-[(ethenylsulfonyl)amino]phenyl}-7H-pyrrolo[2,3-d]pyrimidine-5-carboxylate] | – | – | 0.037 | > 1500
C/C=C/S(=O)(=O)Nc1cccc(-c2ncnc3[nH]cc(C(=O)OCC)c23)c1 [Example 10-2, ethyl 4-(3-{[(1E)-prop-1-en-1-ylsulfonyl]amino}phenyl)-7H-pyrrolo[2,3-d]pyrimidine-5-carboxylate] | – | – | 8.2 | > 1500
C=C(C)S(=O)(=O)Nc1cccc(-c2ncnc3[nH]cc(C(=O)OCC)c23)c1 [Example 10-3, ethyl 4-(3-{[(1-methylethenyl)sulfonyl]amino}phenyl)-7H-pyrrolo[2,3-d]pyrimidine-5-carboxylate] | 10 to 500 | > 500 | – | –
C=C(C)C(=O)Nc1cc(-c2ncnc3[nH]cc(C(=O)OC)c23)ccc1F [Example 11-1, Methyl 4-{4-fluoro-3-[(2-methylacryloyl)amino]phenyl}-7H-pyrrolo[2,3-d]pyrimidine-5-carboxylate] | – | – | 0.4 | > 1500
C=C(C)C(=O)Nc1cccc(-c2ncnc3[nH]cc(C(=O)OC)c23)c1 [Example 11-2, methyl 4-{3-[(2-methylacryloyl)amino]phenyl}-7H-pyrrolo[2,3-d]pyrimidine-5-carboxylate] | – | – | 2 | > 1500
C=CC(=O)N(C)c1cccc(-c2ncnc3[nH]cc(C(=O)OCC)c23)c1 [Example 12-1, Ethyl 4-(3-(N-methylacrylamido)phenyl)-7H-pyrrolo[2,3-d]pyrimidine-5-carboxylate] | – | – | 0.13 | > 1500
C=C(CN(C)C)C(=O)Nc1cccc(-c2ncnc3[nH]cc(C(=O)OCC)c23)c1 [Example 14, Ethyl-4-[3-({2-[(dimethylamino)methyl]acryloyl}amino)phenyl]-7H-pyrrolo[2,3-d]pyrimidine-5-carboxylate] | – | – | 0.066 | > 1500
CCOC(=O)c1c[nH]c2ncnc(-c3cccc(NC(=O)/C=C/CN(C)C)c3)c12 [Example 16, Ethyl-4-(3-{[(2E)-4-(dimethylamino)but-2-enoyl]amino}phenyl)-7H-pyrrolo[2,3-d]-pyrimidine-5-carboxylate] | – | – | 0.2 | > 1500
CCOC(=O)c1c[nH]c2ncnc(-c3cccc(NC(=O)/C(C)=C/CN(C)C)c3)c12 [Example 17, Ethyl 4-(3-{[(2E)-4-(dimethylamino)-2-methylbut-2-enoyl]amino}phenyl)-7H-pyrrolo[2,3-d]pyrimidine-5-carboxylate] | – | – | 6.6 | > 1500
C=C(C)C(=O)Nc1cccc(-c2ncnc3[nH]cc(-c4ccc(CN)cc4)c23)c1 [Example 19, N-(3-{5-[4-(Aminomethyl)phenyl]-7H-pyrrolo[2,3-d]pyrimidin-4-yl}phenyl)-2-methylprop-2-enamide] | 10 to 500 | > 500 | – | –

The next lines start with the values.

IC50 (JAK3; given as range class) [nM] | IC50 (JAK2; given as range class) [nM] | IC50 (JAK3) [nM] | IC50 (JAK2) [nM] | Compound
– | – | 0.052 | > 1500 | C=C(CNS(C)(=O)=O)C(=O)Nc1cccc(-c2ncnc3[nH]cc(C(=O)OCC)c23)c1 [Example 13-1, Ethyl 4-(3-(2-(methylsulfonamidomethyl)acrylamido)phenyl)-7H-pyrrolo[2,3-d]pyrimidine-5-carboxylate]
< 10 | – | – | > 1500 | C=C(CN)C(=O)Nc1cccc(-c2ncnc3[nH]cc(C(=O)OCC)c23)c1 [Example 13-2, Ethyl 4-(3-(2-(aminomethyl)acrylamido)phenyl)-7H-pyrrolo[2,3-d]pyrimidine-5-carboxylate]
< 10 | – | – | > 1500 | C=C(CNC(C)=O)C(=O)Nc1cccc(-c2ncnc3[nH]cc(C(=O)OCC)c23)c1 [Example 13-3, ethyl 4-(3-(2-(acetamidomethyl)acrylamido)phenyl)-7H-pyrrolo[2,3-d]pyrimidine-5-carboxylate]
– | – | 0.024 | > 1500 | C=C(CF)C(=O)Nc1cccc(-c2ncnc3[nH]cc(C(=O)OCC)c23)c1 [Example 15-1, Ethyl-4-(3-{[2-(fluoromethyl)acryloyl]amino}phenyl)-7H-pyrrolo[2,3-d]pyrimidine-5-carboxylate]
– | – | 0.02 | > 1500 | C=C(CO)C(=O)Nc1cccc(-c2ncnc3[nH]cc(C(=O)OCC)c23)c1 [Example 15-2, Ethyl-4-(3-{[2-(hydroxymethyl)acryloyl]amino}phenyl)-7H-pyrrolo[2,3-d]pyrimidine-5-carboxylate]
– | – | 0.056 | > 1500 | CCOC(=O)c1c[nH]c2ncnc(-c3cccc(NC(=O)C4(C)CO4)c3)c12 (stereo not shown) [Example 18-1, Ethyl-4-(3-(2-methyloxirane-2-carboxamido)phenyl)-7H-pyrrolo[2,3-d]pyrimidine-5-carboxylate]
10 to 500 | > 500 | – | – | CCOC(=O)c1c[nH]c2ncnc(-c3cccc(NC(=O)C(C)(O)CO)c3)c12 (stereo not shown) [Example 18-2, Ethyl-4-(3-(2,3-dihydroxy-2-methylpropanamido)phenyl)-7H-pyrrolo[2,3-d]pyrimidine-5-carboxylate]
– | – | 0.17 | > 1500 | C=C(C)C(=O)Nc1cccc(-c2ncnc3[nH]cc(-c4cccc(C)c4)c23)c1 [Example 20-1, 2-Methyl-N-{3-[5-(3-methylphenyl)-7H-pyrrolo[2,3-d]pyrimidin-4-yl]phenyl}prop-2-enamide]
– | – | 0.59 | > 1500 | C=C(C)C(=O)Nc1cccc(-c2ncnc3[nH]cc(-c4cccc(F)c4)c23)c1 [Example 20-2, N-{3-[5-(3-fluorophenyl)-7H-pyrrolo[2,3-d]pyrimidin-4-yl]phenyl}-2-methylprop-2-enamide]
– | – | 0.96 | > 1500 | C=C(C)C(=O)Nc1cccc(-c2ncnc3[nH]cc(-c4ccccc4F)c23)c1 [Example 20-3, N-{3-[5-(2-fluorophenyl)-7H-pyrrolo[2,3-d]pyrimidin-4-yl]phenyl}-2-methylprop-2-enamide]
– | – | 1.5 | > 1500 | C=C(C)C(=O)Nc1cccc(-c2ncnc3[nH]cc(-c4ccc(F)cc4)c23)c1 [Example 20-4, N-{3-[5-(4-fluorophenyl)-7H-pyrrolo[2,3-d]pyrimidin-4-yl]phenyl}-2-methylprop-2-enamide]
– | – | 1.5 | > 1500 | C=C(C)C(=O)Nc1cccc(-c2ncnc3[nH]cc(-c4cccc(F)c4Cl)c23)c1 [Example 20-5, N-{3-[5-(2-chloro-3-fluorophenyl)-7H-pyrrolo[2,3-d]pyrimidin-4-yl]phenyl}-2-methylprop-2-enamide]
– | – | 5.2 | > 1500 | C=C(C)C(=O)Nc1cccc(-c2ncnc3[nH]cc(-c4ccccc4C)c23)c1 [Example 20-6, 2-methyl-N-{3-[5-(2-methylphenyl)-7H-pyrrolo[2,3-d]pyrimidin-4-yl]phenyll}prop-2-enamide]
– | – | 5.4 | > 1500 | C=C(C)C(=O)Nc1cccc(-c2ncnc3[nH]cc(-c4ccc(C)cc4)c23)c1 [Example 20-7, 2-methyl-N-{3-[5-(4-methylphenyl)-7H-pyrrolo[2,3-d]pyrimidin-4-yl]phenyl}prop-2-enamide]
10 to 500 | > 500 | – | – | C=C(C)C(=O)Nc1cccc(-c2ncnc3[nH]cc(-c4c(C)cc(C)cc4C)c23)c1 [Example 20-8, 2-methyl-N-{3-[5-(2,4,6-trimethylphenyl)-7H-pyrrolo[2,3-d]pyrimidin-4-yl]phenyll}prop-2-enamide]
– | – | 0.016 | > 1500 | C=CC(=O)Nc1cccc(-c2ncnc3[nH]cc(-c4ccccc4)c23)c1 [Example 20-9, N-[3-(5-phenyl-7H-pyrrolo[2,3-d]pyrimidin-4-yl)phenyl]prop-2-enamide]
10 to 500 | > 500 | – | – | C=C(C)C(=O)Nc1cccc(-c2ncnc3[nH]cc(-c4ccccn4)c23)c1 [Example 21-1, N-(3-(5-(Pyridin-2-yl)-7H-pyrrolo[2,3-d]pyrimidin-4-yl)phenyl)methacrylamide]
– | – | 7.5 | > 1500 | C=C(C)C(=O)Nc1cccc(-c2ncnc3[nH]cc(-c4cnc[nH]4)c23)c1 [Example 21-2, N-(3-(5-(1H-imidazol-5-yl)-7H-pyrrolo[2,3-d]pyrimidin-4-yl)phenyl)methacrylamide]
10 to 500 | > 500 | – | – | C=C(C)C(=O)Nc1cccc(-c2ncnc3[nH]cc(-c4ccncc4)c23)c1 [Example 21-3, N-(3-(5-(pyridin-4-yl)-7H-pyrrolo[2,3-d]pyrimidin-4-yl)phenyl)methacrylamide]
